The record followed here is patent US9546173B2 (Novartis AG, priority 2012, dated 2017).

The structures appear in SMILES notation.

The IC50 is the concentration needed to halve the response being measured.

Chain of activated ERK2 (P28482 whole entry): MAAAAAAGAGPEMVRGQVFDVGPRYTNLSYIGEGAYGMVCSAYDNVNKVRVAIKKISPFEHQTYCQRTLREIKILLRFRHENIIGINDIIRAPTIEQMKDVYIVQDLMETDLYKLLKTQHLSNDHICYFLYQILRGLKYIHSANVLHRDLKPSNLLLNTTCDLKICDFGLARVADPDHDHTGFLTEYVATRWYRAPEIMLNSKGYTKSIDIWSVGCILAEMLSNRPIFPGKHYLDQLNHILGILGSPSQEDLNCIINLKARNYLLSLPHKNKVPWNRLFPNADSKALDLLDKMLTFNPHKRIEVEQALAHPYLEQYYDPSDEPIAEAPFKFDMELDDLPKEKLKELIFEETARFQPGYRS

The target of the first assay is activated ERK2 (Homo sapiens (Human), UniProt P28482). Nature of the assay: Activated ERK2 kinase assay (AlphaScreen, ERKtide peptide phosphorylation). It is filed as biochemical. Particulars: […] ERK2, 200 nM ERKtide peptide, 35 μM ATP, 30 min preincubation; read-out: ERK2 IC50. From the text:
Production of Activated ERK2 Protein:
Activated ERK2 protein was generated in insect cells by co-expression with a constitutively active form of MEK1. The ERK2 protein was expressed and purified as a nHis-PreScission-ERK2 tagged protein and then proteolytically processed to the full-length wild-type protein. […] Double-phosphorylated ERK2 protein was purified from the mixture by mono-Q column separation.
Activated ERK2 Kinase Assay:
A 16-point, half-log dilution series of compounds at 41× final concentration was used for generating IC50 curves. Compound dilution series were prepared in 100% DMSO. ERK2 was preincubated with compounds for 30 minutes at ambient temperature. Reaction was initiated by addition of a substrate cocktail of ERKtide peptide and ATP and was allowed to proceed for 2-3 hours at ambient temperature. Reaction was terminated by addition of 10 μL of a 2× stop buffer consisting of 100 mM Tris-Cl [pH 7.5], 25 mM EDTA, 0.01% Tween 20, 10 μg/mL of AlphaScreen Protein A Acceptor Beads, 10 μg/mL of Streptavidin Donor Beads (PerkinElmer, Waltham, Mass.), and 1.4 μg/mL phospho-EGF Receptor (Thr669) antibody (Cat #3056, Cell Signaling Technology, Danvers, Mass.). Terminated reactions were read, after overnight incubation in the dark, on an EnVision Multilabel Plate Reader (PerkinElmer, Waltham, Mass.), with excitation and emission wavelengths set to 680 nm and 570 nm, respectively. IC50 values were determined using a four-parameter fit.
On to `CC1(C)c2cnc(NC3CCOCC3)nc2CN1C(=O)N[C@H](CO)c1ccccc1` [compound 1, (S)-N-(2-hydroxy-1-phenylethyl)-5,5-dimethyl-2-((tetrahydro-2H-pyran-4-yl)amino)-5H-pyrrolo[3,4-d]pyrimidine-6(7H)-carboxamide], for which the IC50 was determined as 14 nM. The same measure, in the same setting: in the case of `CC1(C)c2cnc(NC3CCOCC3)nc2CN1C(=O)N[C@H](CO)c1cccc(Cl)c1` [compound 2, (S)-N-(1-(3-chlorophenyl)-2-hydroxyethyl)-5,5-dimethyl-2-((tetrahydro-2H-pyran-4-yl)amino)-5H-pyrrolo[3,4-d]pyrimidine-6(7H)-carboxamide] it was 4 nM; in that of `CC1(C)c2cnc(NC3CCOCC3)nc2CN1C(=O)NCc1cccnc1` [compound 3, 5,5-dimethyl-N-(pyridin-3-ylmethyl)-2-((tetrahydro-2H-pyran-4-yl)amino)-5H-pyrrolo[3,4-d]pyrimidine-6(7H)-carboxamide], 894 nM. For `CC1(C)c2cnc(NC3CCOCC3)nc2CN1C(=O)NCc1cccc(S(C)(=O)=O)c1` [compound 4, 5,5-dimethyl-N-(3-(methylsulfonyl)benzyl)-2-((tetrahydro-2H-pyran-4-yl)amino)-5H-pyrrolo[3,4-d]pyrimidine-6(7H)-carboxamide], the IC50 is 18 nM.

Take `CC1(C)c2cnc(NC3CCOCC3)nc2CN1C(=O)N[C@H]1CCCN(Cc2ccccc2F)C1` [compound 5, (S)-N-(1-(2-fluorobenzyl)piperidin-3-yl)-5,5-dimethyl-2-((tetrahydro-2H-pyran-4-yl)amino)-5H-pyrrolo[3,4-d]pyrimidine-6(7H)-carboxamide]: the IC50 was 15500 nM.

For `CC1(C)c2cnc(NC3CCOCC3)nc2CN1C(=O)N[C@H]1CCCNC1` [compound 6, (S)-5,5-dimethyl-N-(piperidin-3-yl)-2-((tetrahydro-2H-pyran-4-yl)amino)-5H-pyrrolo[3,4-d]pyrimidine-6(7H)-carboxamide], the IC50 stood at 2340 nM. Still for that read-out and setting: in the case of `CC1(C)c2cnc(NC3CCOCC3)nc2CN1C(=O)N[C@@H]1CCCNC1` [compound 7, (R)-5,5-dimethyl-N-(piperidin-3-yl)-2-((tetrahydro-2H-pyran-4-yl)amino)-5H-pyrrolo[3,4-d]pyrimidine-6(7H)-carboxamide] it was 15300 nM; in that of `CC1(C)c2cnc(NC3CCOCC3)nc2CN1C(=O)N[C@@H]1CCCN(Cc2ccccc2F)C1` [compound 8, (R)-N-(1-(2-fluorobenzyl)piperidin-3-yl)-5,5-dimethyl-2-((tetrahydro-2H-pyran-4-yl)amino)-5H-pyrrolo[3,4-d]pyrimidine-6(7H)-carboxamide], 82 nM.

Take `CC1(C)c2cnc(NC3CCOCC3)nc2CN1C(=O)N[C@@H]1CC1c1ccccc1` (stereo partly drawn) [compound 9, 5,5-dimethyl-N-((1R)-2-phenylcyclopropyl)-2-((tetrahydro-2H-pyran-4-yl)amino)-5H-pyrrolo[3,4-d]pyrimidine-6(7H)-carboxamide]: the IC50 is 23 nM.

Turning to `CC1(C)c2cnc(NC3CCS(=O)(=O)CC3)nc2CN1C(=O)N[C@H](CO)c1ccccc1` [compound 10, (S)-2-((1,1-dioxidotetrahydro-2H-thiopyran-4-yl)amino)-N-(2-hydroxy-1-phenylethyl)-5,5-dimethyl-5H-pyrrolo[3,4-d]pyrimidine-6(7H)-carboxamide], the IC50 stood at 722 nM. Same read-out and setting: in the case of `CC1(C)c2cnc(NC3CCC(F)(F)CC3)nc2CN1C(=O)N[C@H](CO)c1ccccc1` [compound 11, (S)-2-((4,4-difluorocyclohexyl)amino)-N-(2-hydroxy-1-phenylethyl)-5,5-dimethyl-5H-pyrrolo[3,4-d]pyrimidine-6(7H)-carboxamide] it was 146 nM; in that of `CC1(C)c2cnc(NC3CCOC3)nc2CN1C(=O)N[C@H](CO)c1ccccc1` (stereo partly drawn) [compound 12, N-((S)-2-hydroxy-1-phenylethyl)-5,5-dimethyl-2-((tetrahydrofuran-3-yl)amino)-5H-pyrrolo[3,4-d]pyrimidine-6(7H)-carboxamide], 375 nM. On the same count and under the same terms, as for `CC1(C)c2cnc(NC3CCOCC3)nc2CN1C(=O)NCc1cc(F)cc(Cl)c1` [compound 13, N-(3-chloro-5-fluorobenzyl)-5,5-dimethyl-2-((tetrahydro-2H-pyran-4-yl)amino)-5H-pyrrolo[3,4-d]pyrimidine-6(7H)-carboxamide], the figure is 8 nM; as for `CC1(C)c2cnc(NC3CCOCC3)nc2CN1C(=O)NCC1CCCCO1` (centres unmarked) [compound 14, 5,5-dimethyl-N-((tetrahydro-2H-pyran-2-yl)methyl)-2-((tetrahydro-2H-pyran-4-yl)amino)-5H-pyrrolo[3,4-d]pyrimidine-6(7H)-carboxamide], 328 nM. Still for that read-out and setting: in the case of `CC1(C)c2cnc(NC3CCOCC3)nc2CN1C(=O)NCC1CCCOC1` (centres unmarked) [compound 15, 5,5-dimethyl-N-((tetrahydro-2H-pyran-3-yl)methyl)-2-((tetrahydro-2H-pyran-4-yl)amino)-5H-pyrrolo[3,4-d]pyrimidine-6(7H)-carboxamide] it was 842 nM; in that of `CC1(C)c2cnc(NC3CCOCC3)nc2CN1C(=O)NCC1CCOCC1` [compound 16, 5,5-dimethyl-2-((tetrahydro-2H-pyran-4-yl)amino)-N-((tetrahydro-2H-pyran-4-yl)methyl)-5H-pyrrolo[3,4-d]pyrimidine-6(7H)-carboxamide], 362 nM. For `CC1(C)c2cnc(NC3CCOCC3)nc2CN1C(=O)N[C@H](CO)C1CCCCC1` [compound 17, (S)-N-(1-cyclohexyl-2-hydroxyethyl)-5,5-dimethyl-2-((tetrahydro-2H-pyran-4-yl)amino)-5H-pyrrolo[3,4-d]pyrimidine-6(7H)-carboxamide], the IC50 turned out to be 67 nM. Still for that read-out and setting: in the case of `CC1(C)c2cnc(NC3CCOCC3)nc2CN1C(=O)NC1CCOCC1` [compound 18, 5,5-dimethyl-N-(tetrahydro-2H-pyran-4-yl)-2-((tetrahydro-2H-pyran-4-yl)amino)-5H-pyrrolo[3,4-d]pyrimidine-6(7H)-carboxamide] it was 2390 nM; in that of `CC1(C)c2cnc(NC3CCOCC3)nc2CN1C(=O)NCc1cc(F)cc(F)c1` [compound 19, N-(3,5-difluorobenzyl)-5,5-dimethyl-2-((tetrahydro-2H-pyran-4-yl)amino)-5H-pyrrolo[3,4-d]pyrimidine-6(7H)-carboxamide], 21 nM.

As for `CC1(C)c2cnc(NC3CCOCC3)nc2CN1C(=O)NCc1cccc(F)c1` [compound 20, N-(3-fluorobenzyl)-5,5-dimethyl-2-((tetrahydro-2H-pyran-4-yl)amino)-5H-pyrrolo[3,4-d]pyrimidine-6(7H)-carboxamide], the IC50 was 16 nM.

Regarding `CC1(C)c2cnc(NC3CCOCC3)nc2CN1C(=O)NCc1cccc(Cl)c1` [compound 21, N-(3-chlorobenzyl)-5,5-dimethyl-2-((tetrahydro-2H-pyran-4-yl)amino)-5H-pyrrolo[3,4-d]pyrimidine-6(7H)-carboxamide], the IC50 was found to be 6 nM. Consider `C[C@@H](NC(=O)N1Cc2nc(NC3CCOCC3)ncc2C1(C)C)c1cccc(Cl)c1` [compound 22, (R)-N-(1-(3-chlorophenyl)ethyl)-5,5-dimethyl-2-((tetrahydro-2H-pyran-4-yl)amino)-5H-pyrrolo[3,4-d]pyrimidine-6(7H)-carboxamide], for which the IC50 was 2 nM. Regarding `CC1(C)c2cnc(NC3CCOCC3)nc2CN1C(=O)NCc1ccc(F)cc1` [compound 24, N-(4-fluorobenzyl)-5,5-dimethyl-2-((tetrahydro-2H-pyran-4-yl)amino)-5H-pyrrolo[3,4-d]pyrimidine-6(7H)-carboxamide], the half-maximal inhibitory concentration (IC50) turned out to be 22 nM. Consider `CC1(C)c2cnc(NC3CCCOC3)nc2CN1C(=O)N[C@H](CO)c1ccccc1` (stereo partly drawn) [compound 25, N-((S)-2-hydroxy-1-phenylethyl)-5,5-dimethyl-2-((tetrahydro-2H-pyran-3-yl)amino)-5H-pyrrolo[3,4-d]pyrimidine-6(7H)-carboxamide], for which the half-maximal inhibitory concentration (IC50) is 193 nM.

Regarding `CC1(C)c2cnc(NC3CCOCC3)nc2CN1C(=O)NC(c1ccccc1)C(F)(F)F` (centres unmarked) [compound 26, 5,5-dimethyl-2-((tetrahydro-2H-pyran-4-yl)amino)-N-(2,2,2-trifluoro-1-phenylethyl)-5H-pyrrolo[3,4-d]pyrimidine-6(7H)-carboxamide], the IC50 is 125 nM. As for `CN(Cc1ccccc1)C(=O)N1Cc2nc(NC3CCOCC3)ncc2C1(C)C` [compound 27, N-benzyl-N,5,5-trimethyl-2-((tetrahydro-2H-pyran-4-yl)amino)-5H-pyrrolo[3,4-d]pyrimidine-6(7H)-carboxamide], the IC50 is 202 nM. Same read-out and setting: as for `CC1(C)c2cnc(NC3CCOCC3)nc2CN1C(=O)NCc1ccc(Cl)cc1` [compound 28, N-(4-chlorobenzyl)-5,5-dimethyl-2-((tetrahydro-2H-pyran-4-yl)amino)-5H-pyrrolo[3,4-d]pyrimidine-6(7H)-carboxamide], the figure is 10 nM; as for `CC1(C)c2cnc(NC3CCOCC3)nc2CN1C(=O)NCc1ccccc1Cl` [compound 29, N-(2-chlorobenzyl)-5,5-dimethyl-2-((tetrahydro-2H-pyran-4-yl)amino)-5H-pyrrolo[3,4-d]pyrimidine-6(7H)-carboxamide], 159 nM.

The same assay, now with this note: comparative example text; read-out: IC50 on ERK2.
Turning to `C[C@@H](NC(=O)N1Cc2cnc(NC3CCOCC3)nc2C1)c1ccccc1` [Comparative Example, reference compound], the IC50 is 360 nM.
